Bounds are passed on as bounds.

From patent US20220056037A1 (SPV THERAPEUTICS INC., priority 2018, published 2022) come the findings set out here.

The test system of one data set is BXF 5637. Kind of data set: 2D cell proliferation assay (CellTiter-Blue). It counts as cell-based. The settings on record: 72 h; cell line BXF 5637; three days of treatment; read-out: IC (abs. IC50). As for the experimental part: (§1) Viability of the cells was analyzed by using the CellTiter-Blue® Cell Viability Assay (Promega), and was performed according to manufacturer's instructions. Briefly, cells were harvested from exponential phase cultures (Chapter 6.6), counted and plated in 96-well flat-bottom microtiter plates at a cell density of 4,000-60,000 cells/well in a volume of 140 μl per well. After a 24 hours recovery period, 10 μL cell culture medium (six control wells/plate) or culture medium with test compound were added (Chapter 6.2). The compounds were applied at five concentrations in full-log increments up to 100 μM in duplicate. Cultures were incubated at 37° C. and 5% CO2 in a humidified atmosphere for another three days. After three days of treatment, 20 μl/well CellTiter-Blue® reagent was added. Following incubation with CellTiter-Blue® reagent for up to four hours, fluorescence (FU) was measured by using the Enspire Multimode Plate Reader (excitation λ=570 nm, emission λ=600 nm). For calculations, the mean values of duplicate/sextuplicate (untreated control) data were used.
(§2) Drug effects were expressed in terms of the percentage of the fluorescence signal, obtained by comparison of the mean signal in the treated wells with the mean signal of the untreated controls (expressed by the test-versus-control value, T/C-value [%]):
(§3) IC values are reported as relative IC50 values and absolute IC50 and IC70 values. […] The absolute IC70 value gives the concentration of the test compound that achieves T/C=30%. The relative IC50 value is the concentration of test compound that gives a response half way between the top and bottom plateau of the sigmoidal concentration-response curve (inflection point of the curve). Calculation was done by 4parameter non-linear curve fit (Oncotest Data Warehouse Software).
(§4) If an IC50 or IC70 value could not be determined within the examined dose range (because a compound was either too active or lacked activity), the lowest or highest concentration studied was used for calculation of the geometric mean value.
(§5) The overall potency of a compound was determined by the geometric mean IC50/IC70 values of all individual IC50/IC70 values. In the heatmap representation of IC50 and IC70 values, the distribution of the IC50 or IC70 values obtained for a test compound in the individual cell lines is given in relation to the geometric mean […] or IC70 value, obtained over all PDX models tested. The individual IC values range from 1/32-fold geometric mean IC (corresponding to very potent compound activity or high tumor sensitivity) to 32-fold geometric mean IC (corresponding to lack of compound activity or tumor resistance). The heatmap presentation, therefore, represents an antiproliferative “fingerprint” profile of a test compound.

In a further data set the test system is CXF HT-29. Kind of data set: 2D cell proliferation assay (CellTiter-Blue). It counts as cell-based. As to conditions: Homo sapiens, 72 h; cell line CXF HT-29; three days of treatment; read-out: IC (abs. IC50). As for the experimental part:
as §1, §2, §3, §4, §5

Another data set relates to LEXFAM MV4-11. Kind of data set: 2D cell proliferation assay (CellTiter-Blue). The settings on record: Homo sapiens, 72 h; cell line LEXFAM MV4-11; three days of treatment; read-out: IC (abs. IC50). The class given is cell-based. As for the experimental part: as §1, §2, §3, §4, §5
In the next data set the test system is LXFL NCI-H460. Kind of data set: 2D cell proliferation assay (CellTiter-Blue). The class given is cell-based. As to conditions: Homo sapiens, 72 h; cell line LXFL NCI-H460; three days of treatment; read-out: IC (abs. IC50). The method, then:
as §1, §2, §3, §4, §5

For the next data set, the system named is LYXFNH U-937. Kind of data set: 2D cell proliferation assay (CellTiter-Blue). The class given is cell-based. As to conditions: Homo sapiens, 72 h; cell line LYXFNH U-937; three days of treatment; read-out: IC (abs. IC50). The method, then:
as §1, §2, §3, §4, §5

In the next data set the test system is MAXFHER SK-BR-3. Kind of data set: 2D cell proliferation assay (CellTiter-Blue). It counts as cell-based. As to conditions: Homo sapiens, 72 h; cell line MAXFHER SK-BR-3; three days of treatment; read-out: IC (abs. IC50). As for the experimental part:
as §1, §2, §3, §4, §5

For a further data set, the system named is MAXFTN BT-549. Kind of data set: 2D cell proliferation assay (CellTiter-Blue). The settings on record: Homo sapiens, 72 h; cell line MAXFTN BT-549; three days of treatment; read-out: IC (abs. IC50). The class given is cell-based. As for the experimental part: as §1, §2, §3, §4, §5
The next data set deals with MAXFTN MDA-MB-468 (ER −). Kind of data set: 2D cell proliferation assay (CellTiter-Blue). It counts as cell-based. The settings on record: Homo sapiens, 72 h; cell line MAXFTN MDA-MB-468 (ER −); three days of treatment; read-out: IC (abs. IC50). As for the experimental part:
as §1, §2, §3, §4, §5

A further data set has as its system MAXFTN ZR-75-1 (ER +). Kind of data set: 2D cell proliferation assay (CellTiter-Blue). The class given is cell-based. As to conditions: Homo sapiens, 72 h; cell line MAXFTN ZR-75-1 (ER +); three days of treatment; read-out: IC (abs. IC50). As for the experimental part: as §1, §2, §3, §4, §5
The subject of the next data set is MEXF A-375. Kind of data set: 2D cell proliferation assay (CellTiter-Blue). The class given is cell-based. As to conditions: Homo sapiens, 72 h; cell line MEXF A-375; three days of treatment; read-out: IC (abs. IC50). The method, then:
as §1, §2, §3, §4, §5

Another data set has as its system MEXF A2058. Kind of data set: 2D cell proliferation assay (CellTiter-Blue). The class given is cell-based. The settings on record: Homo sapiens, 72 h; cell line MEXF A2058; three days of treatment; read-out: IC (abs. IC50). The method, then: as §1, §2, §3, §4, §5
In another data set the test system is all cell lines tested. Kind of data set: 2D cell proliferation assay (CellTiter-Blue), geometric mean over the panel. The settings on record: geometric mean of all individual IC50 values of Table 4; read-out: Geomean abs. IC50 value. The class given is cell-based. As for the experimental part:
as §1, with “For calculations, the mean values of duplicate/sextuplicate (untreated control) data were used.” left out
as §4
The overall potency of a compound was determined by the geometric mean IC50/IC70 values of all individual IC50/IC70 values. […]

Data set [1] can be described thus: Nonclinical pharmacokinetic study, IV and oral, in rats.
Experimental: Nonclinical pharmacokinetic (PK) parameters of lead CDK4/6/9 inhibitors were determined in an intravenous (IV) and oral study (p.o.) conducted in rats. Lead compounds were each administered as a single oral dose at 100 mg/kg or by IV bolus via the caudal vein at the dose of 30 mg/kg. Blood samples were collected at 0.25, 0.5, 1, 2, 4, 8, 12, and 24 hours post i.v. administration, and at 1, 2, 4, 8, 24 and 48 hours post oral administration. Plasma was processed for drug concentration analysis using a validated LCMS/MS method, and PK parameters were calculated by using WinNonlin.
[2] abbreviates: rats, oral administration, 100 mg/kg, N = 3.

Take `CN1CCN(c2ccc(Nc3ncc4cc(C(=O)N(C)C)n(C56CC(C5)C6)c4n3)cc2)CC1` [SPV113]: the IC50 was 0.476 µM in the data set on BXF 5637; 0.437 µM in the data set with CXF HT-29; not above 0.01 µM with LEXFAM MV4-11; 0.291 µM in the data set on LXFL NCI-H460; not above 0.01 µM in the data set with LYXFNH U-937; 2.04 µM in the data set on MAXFHER SK-BR-3. Also, the IC50 was determined as 0.713 µM in the data set with MAXFTN BT-549; 0.29 µM in the data set on MAXFTN MDA-MB-468 (ER −); 12.6 µM in the data set with MAXFTN ZR-75-1 (ER +); 0.101 µM in the data set on MEXF A-375; 1.51 µM with MEXF A2058; 0.391 µM with all cell lines tested. For the same compound, the Cmax was found to be 6830 ng/mL in data set [1] (rat, plasma, iv, 30 mg/kg) and 2520 ng/mL in [1] (rat, plasma, po, 100 mg/kg). Also, the clearance in data set [1] (rat, plasma, iv, 30 mg/kg) was 18.7 mL/min/kg. The compound further showed a half-life in [1] (rat, plasma, iv, 30 mg/kg) of 5.73 h. For the same compound, in data set [1] (rat, plasma, po, 100 mg/kg), the MRT came to 25.5 h. In data set [1] (rats, oral 100 mg/kg vs IV bolus 30 mg/kg), the “BIOAVAILABILITY F” value is reported as 33.3%. This compound showed an AUC in [1] (setting [2]) of 33798 ng·h/mL. Further, in [1] (setting [2]), the T1/2 was found to be 6.0 h.
